Assay results published in PubChem BioAssay AID248 (DTP/NCI, 2004).
Inconclusive results and toxic doses are left out. Cut-off read from the data, not from the text of the source: active = T/C of 150% or more; inactive = T/C below 125%.

Tested on: L1210 leukemia ip in BDF1 mice, survival T/C
Assay: NCI In Vivo Anticancer Drug Screen. Data for tumor model L1210 Leukemia (intraperitoneal) in B6D2F1 (BDF1) mice
Conditions: endpoint: mean survival time, higher = longer survival
Method in brief: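 Value reflects the ratio of survival in compound-treated mice to survival in vehicle-treated controls, with both groups carrying the same transplanted tumor.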

[1] = dose: 100.0 mg/kg/injection, schedule: Q01DX009 (ip), vehicle: saline
[2] = dose: 100.0 mg/kg/injection, schedule: Q01DX009 (ip), vehicle: Klucel (hydroxypropylcellulose) (HPC)
[3] = dose: 100.0 mg/kg/injection, schedule: Q04DX003 (ip), vehicle: saline with Tween-80
[4] = dose: 200.0 mg/kg/injection, schedule: Q04DX003 (ip), vehicle: saline with Tween-80
[5] = dose: 400.0 mg/kg/injection, schedule: Q04DX003 (ip), vehicle: saline with Tween-80
[6] = dose: 50.0 mg/kg/injection, schedule: Q01DX001 (ip), vehicle: Klucel (hydroxypropylcellulose) (HPC)
[7] = dose: 100.0 mg/kg/injection, schedule: Q01DX001 (ip), vehicle: Klucel (hydroxypropylcellulose) (HPC)
[8] = dose: 200.0 mg/kg/injection, schedule: Q01DX001 (ip), vehicle: Klucel (hydroxypropylcellulose) (HPC)
[9] = dose: 100.0 mg/kg/injection, schedule: Q01DX001 (ip), vehicle: carboxymethylcellulose (CMC)
[10] = dose: 100.0 mg/kg/injection, schedule: Q04DX003 (ip), vehicle: saline
[11] = dose: 200.0 mg/kg/injection, schedule: Q01DX001 (ip), vehicle: carboxymethylcellulose (CMC)
[12] = dose: 400.0 mg/kg/injection, schedule: Q01DX001 (ip), vehicle: carboxymethylcellulose (CMC)
[13] = dose: 100.0 mg/kg/injection, schedule: Q04DX003 (ip), vehicle: Klucel (hydroxypropylcellulose) (HPC)
[14] = dose: 200.0 mg/kg/injection, schedule: Q04DX003 (ip), vehicle: Klucel (hydroxypropylcellulose) (HPC)
[15] = dose: 100.0 mg/kg/injection, schedule: Q01DX001 (ip), vehicle: saline with Tween-80
[16] = dose: 200.0 mg/kg/injection, schedule: Q01DX001 (ip), vehicle: saline with Tween-80
[17] = dose: 400.0 mg/kg/injection, schedule: Q01DX001 (ip), vehicle: saline with Tween-80
[18] = dose: 100.0 mg/kg/injection, schedule: Q01DX009 (ip), vehicle: saline with Tween-80
[19] = dose: 200.0 mg/kg/injection, schedule: Q01DX009 (ip), vehicle: saline with Tween-80
[20] = dose: 400.0 mg/kg/injection, schedule: Q01DX009 (ip), vehicle: saline with Tween-80

Measured: T/C

C[n+]1cccc(C=O)c1
inactive: [1] 100 % of control | dose: 200.0 mg/kg/injection, schedule: Q01DX009 (ip), vehicle: saline 101 % of control | dose: 400.0 mg/kg/injection, schedule: Q01DX009 (ip), vehicle: saline 100 % of control

N#CCCCCCCCCCC#N
inactive: dose: 10.0 mg/kg/injection, schedule: Q04DX003 (ip), vehicle: Klucel (hydroxypropylcellulose) (HPC) 93 % of control | dose: 20.0 mg/kg/injection, schedule: Q04DX003 (ip), vehicle: Klucel (hydroxypropylcellulose) (HPC) 100 % of control | dose: 40.0 mg/kg/injection, schedule: Q04DX003 (ip), vehicle: Klucel (hydroxypropylcellulose) (HPC) 109 % of control | [2] 96 % of control

Cc1ccc(S(=O)(=O)NC(C(=O)O)C(C)C)cc1 (configuration not stated)
inactive: [3] 102 % of control | [4] 100 % of control | [5] 102 % of control

CC(=O)CC(=O)Nc1ccccc1C
inactive: [6] 100 % of control | [7] 106 % of control | [8] 106 % of control

O=c1[nH][nH]c(=S)c2[nH]c(=S)n(Cc3ccccc3)c12
inactive: dose: 100.0 mg/kg/injection, schedule: Q01DX001 (ip), vehicle: saline 90 % of control | dose: 200.0 mg/kg/injection, schedule: Q01DX001 (ip), vehicle: saline 93 % of control | dose: 400.0 mg/kg/injection, schedule: Q01DX001 (ip), vehicle: saline 90 % of control

Cc1c(CC=C(c2ccccc2)c2ccccc2)cccc1C[N+](C)(C)C
inactive: dose: 5.0 mg/kg/injection, schedule: Q01DX001 (ip), vehicle: carboxymethylcellulose (CMC) 101 % of control | dose: 10.0 mg/kg/injection, schedule: Q01DX001 (ip), vehicle: carboxymethylcellulose (CMC) 106 % of control | dose: 20.0 mg/kg/injection, schedule: Q01DX001 (ip), vehicle: carboxymethylcellulose (CMC) 98 % of control | dose: 40.0 mg/kg/injection, schedule: Q01DX001 (ip), vehicle: carboxymethylcellulose (CMC) 90 % of control | dose: 80.0 mg/kg/injection, schedule: Q01DX001 (ip), vehicle: carboxymethylcellulose (CMC) 90 % of control | [9] 93 % of control

NCCc1cnc2ccccc2n1
inactive: dose: 25.0 mg/kg/injection, schedule: Q01DX009 (ip), vehicle: saline 95 % of control | dose: 50.0 mg/kg/injection, schedule: Q01DX009 (ip), vehicle: saline 97 % of control | [1] 96 % of control | [10] 98 % of control

CCOC(=O)CSc1nc(N)cc(=O)[nH]1
inactive: [6] 110 % of control | [7] 117 % of control | [8] 110 % of control

CC1NCc2c(N)ncnc21 (configuration not stated)
inactive: [9] 106 % of control | [11] 112 % of control | [12] 98 % of control

O=c1[nH]cc(CN(CCO)CCO)c(=O)[nH]1
inactive: dose: 100.0 mg/kg/injection, schedule: Q01DX Z (ip), vehicle: saline 101 % of control | dose: 200.0 mg/kg/injection, schedule: Q01DX Z (ip), vehicle: saline 103 % of control

COC(=O)c1cccc2c1-c1ccccc1C2=O
inactive: dose: 100.0 mg/kg/injection, schedule: Q01DX001 (ip), vehicle: other 92 % of control | dose: 200.0 mg/kg/injection, schedule: Q01DX001 (ip), vehicle: other 88 % of control | dose: 400.0 mg/kg/injection, schedule: Q01DX001 (ip), vehicle: other 97 % of control

CCOCCN1CCN(CCCN2c3ccccc3Sc3ccc(C(F)(F)F)cc32)CC1
inactive: dose: 0.19 mg/kg/injection, schedule: Q01DX009 (ip), vehicle: water 95 % of control | dose: 0.39 mg/kg/injection, schedule: Q01DX009 (ip), vehicle: water 98 % of control | dose: 0.78 mg/kg/injection, schedule: Q01DX009 (ip), vehicle: water 111 % of control | dose: 1.56 mg/kg/injection, schedule: Q01DX009 (ip), vehicle: water 110 % of control | dose: 22.0 mg/kg/injection, schedule: Q04DX003 (ip), vehicle: other 122 % of control | dose: 100.0 mg/kg/injection, schedule: Q04DX003 (ip), vehicle: water 98 % of control

CCCCNC(=S)NCCCN(C)C
inactive: [13] 101 % of control | [14] 98 % of control

Oc1cc(-c2ccccc2)c(-c2ccccc2)c(-c2ccccc2)c1-c1ccccc1
inactive: [15] 100 % of control | [16] 90 % of control | [17] 88 % of control

O=C(O)CSC(=S)N1CCOCC1
inactive: [15] 91 % of control | [16] 88 % of control | [17] 94 % of control

COc1cc(/C=C2/SC(=S)NC2=O)cc(OC)c1OC
inactive: [18] 96 % of control | [3] 100 % of control | [19] 92 % of control | [4] 100 % of control | [20] 97 % of control | [5] 117 % of control

O=C(O)c1ccccc1C(=O)c1ccc(CBr)cc1
inactive: dose: 6.25 mg/kg/injection, schedule: Q01DX009 (ip), vehicle: saline with Tween-80 92 % of control | dose: 12.5 mg/kg/injection, schedule: Q01DX009 (ip), vehicle: saline with Tween-80 104 % of control | dose: 25.0 mg/kg/injection, schedule: Q01DX009 (ip), vehicle: saline with Tween-80 97 % of control

Cc1cccc(C)c1OC(=O)Nc1ccccc1Cl
inactive: dose: 100.0 mg/kg/injection, schedule: Q04DX002 (ip), vehicle: Klucel (hydroxypropylcellulose) (HPC) 95 % of control | dose: 200.0 mg/kg/injection, schedule: Q04DX002 (ip), vehicle: Klucel (hydroxypropylcellulose) (HPC) 106 % of control | dose: 400.0 mg/kg/injection, schedule: Q04DX002 (ip), vehicle: Klucel (hydroxypropylcellulose) (HPC) 103 % of control

O=C(O)c1cc(O)c(O)cc1O
inactive: [9] 98 % of control | [11] 108 % of control | [12] 92 % of control

COC1=C(N2CC2)C(=O)C(OC)=C(N2CC2)C1=O
inactive: dose: 0.5 mg/kg/injection, schedule: Q01DX009 (ip), vehicle: carboxymethylcellulose (CMC) 114 % of control | dose: 1.0 mg/kg/injection, schedule: Q01DX009 (ip), vehicle: carboxymethylcellulose (CMC) 124 % of control | dose: 3.0 mg/kg/injection, schedule: Q01DX009 (ip), vehicle: carboxymethylcellulose (CMC) 121 % of control

O=[N+]([O-])c1ccc(S(=O)(=O)OCc2cccc(OS(=O)(=O)c3ccc([N+](=O)[O-])cc3)c2)cc1
inactive: [15] 100 % of control | [2] 94 % of control | [13] 100 % of control | [16] 104 % of control | dose: 200.0 mg/kg/injection, schedule: Q01DX009 (ip), vehicle: Klucel (hydroxypropylcellulose) (HPC) 93 % of control | [14] 95 % of control | [17] 102 % of control | dose: 400.0 mg/kg/injection, schedule: Q01DX009 (ip), vehicle: Klucel (hydroxypropylcellulose) (HPC) 107 % of control | dose: 400.0 mg/kg/injection, schedule: Q04DX003 (ip), vehicle: Klucel (hydroxypropylcellulose) (HPC) 102 % of control

CC(C)=NOC(=O)Nc1ccc2c(c1)OCO2
inactive: [3] 109 % of control | [4] 97 % of control | [5] 101 % of control

Cc1cc(N(CCCOS(C)(=O)=O)CCCOS(C)(=O)=O)ccc1C=Nc1ccc(-c2csc(COc3ccc(Cl)cc3Cl)n2)cc1
inactive: [18] 91 % of control | [19] 96 % of control | [20] 94 % of control

CCOC(CCl)(OCC)OCC
inactive: dose: 100.0 mg/kg/injection, schedule: Q04DX002 (ip), vehicle: saline with Tween-80 97 % of control | dose: 200.0 mg/kg/injection, schedule: Q04DX002 (ip), vehicle: saline with Tween-80 90 % of control

NCCCN=C(N)C(N)=NCCCN
inactive: [10] 98 % of control | dose: 200.0 mg/kg/injection, schedule: Q04DX003 (ip), vehicle: saline 95 % of control | dose: 400.0 mg/kg/injection, schedule: Q04DX003 (ip), vehicle: saline 104 % of control

CN(C)C(N1CC1)N1CC1
inactive: dose: 10.0 mg/kg/injection, schedule: Q04DX002 (ip), vehicle: saline 112 % of control | dose: 20.0 mg/kg/injection, schedule: Q04DX002 (ip), vehicle: saline 108 % of control | dose: 40.0 mg/kg/injection, schedule: Q04DX002 (ip), vehicle: saline 97 % of control
